Legend:
[1] = target: T1, human TLR8 (Homo sapiens, UniProt Q9NR97); test: HEK Reporter Assay, human TLR8; type: cell-based; conditions: HEK293 NFKB reporter cells expressing human TLR8; read-out: HEK293 hTLR8 EC50
T1 construct: host or cells: HEK293 NF-kB reporter cells
T1 sequence (Q9NR97 27-1041): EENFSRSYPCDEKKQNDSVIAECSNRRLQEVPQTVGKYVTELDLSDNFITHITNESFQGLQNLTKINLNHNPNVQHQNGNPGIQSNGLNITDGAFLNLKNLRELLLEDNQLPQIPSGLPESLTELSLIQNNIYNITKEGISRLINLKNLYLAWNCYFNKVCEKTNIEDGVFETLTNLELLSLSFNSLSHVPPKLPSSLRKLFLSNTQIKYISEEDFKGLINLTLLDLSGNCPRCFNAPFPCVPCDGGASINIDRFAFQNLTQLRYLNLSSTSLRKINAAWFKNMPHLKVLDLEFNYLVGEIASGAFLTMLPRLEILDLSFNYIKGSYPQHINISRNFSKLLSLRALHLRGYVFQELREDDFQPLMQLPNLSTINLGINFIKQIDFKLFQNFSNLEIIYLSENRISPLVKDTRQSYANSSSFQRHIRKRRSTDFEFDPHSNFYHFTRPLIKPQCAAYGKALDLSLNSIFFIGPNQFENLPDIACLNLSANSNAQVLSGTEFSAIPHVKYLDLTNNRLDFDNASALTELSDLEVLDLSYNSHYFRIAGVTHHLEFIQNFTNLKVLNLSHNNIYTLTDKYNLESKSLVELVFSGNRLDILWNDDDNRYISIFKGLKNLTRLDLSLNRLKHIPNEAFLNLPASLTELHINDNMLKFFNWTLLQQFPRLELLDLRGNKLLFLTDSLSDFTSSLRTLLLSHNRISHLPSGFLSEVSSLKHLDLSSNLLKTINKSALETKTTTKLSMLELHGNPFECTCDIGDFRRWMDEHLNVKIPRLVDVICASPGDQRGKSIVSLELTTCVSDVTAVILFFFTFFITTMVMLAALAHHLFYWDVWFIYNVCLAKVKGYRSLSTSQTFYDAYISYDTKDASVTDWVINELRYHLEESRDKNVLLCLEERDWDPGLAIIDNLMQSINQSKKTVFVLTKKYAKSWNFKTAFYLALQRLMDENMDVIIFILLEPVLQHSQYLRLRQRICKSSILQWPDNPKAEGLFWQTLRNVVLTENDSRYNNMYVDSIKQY
Experimental: (§1) Exemplary 8-sulfonyl-2-aminobenzazepine compounds (8SO2Bz) of the invention were synthesized, purified, and characterized by mass spectrometry and shown to have the expected mass. Additional experimental procedures are found in the Examples. Activity against HEK293 NFKB reporter cells expressing human TLR7 or human TLR8 was measured according to Example 202.
(§2) HEK293 reporter cells expressing human TLR7 or human TLR8 were purchased from Invivogen and vendor protocols were followed for cellular propagation and experimentation. Briefly, cells were grown to 80-85% confluence at 5% CO2 in DMEM supplemented with 10% FBS, Zeocin, and Blasticidin. Cells were then seeded in 96-well flat plates at 4×10^4 cells/well with substrate containing HEK detection medium and immunostimulatory molecules. Activity was measured using a plate reader at 620-655 nm wavelength.

[2] = target: T2, human TLR7 (Homo sapiens, UniProt Q9NYK1); test: HEK Reporter Assay, human TLR7; type: cell-based; conditions: HEK293 NFKB reporter cells expressing human TLR7; read-out: HEK293 hTLR7 EC50
T2 construct: host or cells: HEK293 NF-kB reporter cells
T2 sequence (Q9NYK1 27-1049): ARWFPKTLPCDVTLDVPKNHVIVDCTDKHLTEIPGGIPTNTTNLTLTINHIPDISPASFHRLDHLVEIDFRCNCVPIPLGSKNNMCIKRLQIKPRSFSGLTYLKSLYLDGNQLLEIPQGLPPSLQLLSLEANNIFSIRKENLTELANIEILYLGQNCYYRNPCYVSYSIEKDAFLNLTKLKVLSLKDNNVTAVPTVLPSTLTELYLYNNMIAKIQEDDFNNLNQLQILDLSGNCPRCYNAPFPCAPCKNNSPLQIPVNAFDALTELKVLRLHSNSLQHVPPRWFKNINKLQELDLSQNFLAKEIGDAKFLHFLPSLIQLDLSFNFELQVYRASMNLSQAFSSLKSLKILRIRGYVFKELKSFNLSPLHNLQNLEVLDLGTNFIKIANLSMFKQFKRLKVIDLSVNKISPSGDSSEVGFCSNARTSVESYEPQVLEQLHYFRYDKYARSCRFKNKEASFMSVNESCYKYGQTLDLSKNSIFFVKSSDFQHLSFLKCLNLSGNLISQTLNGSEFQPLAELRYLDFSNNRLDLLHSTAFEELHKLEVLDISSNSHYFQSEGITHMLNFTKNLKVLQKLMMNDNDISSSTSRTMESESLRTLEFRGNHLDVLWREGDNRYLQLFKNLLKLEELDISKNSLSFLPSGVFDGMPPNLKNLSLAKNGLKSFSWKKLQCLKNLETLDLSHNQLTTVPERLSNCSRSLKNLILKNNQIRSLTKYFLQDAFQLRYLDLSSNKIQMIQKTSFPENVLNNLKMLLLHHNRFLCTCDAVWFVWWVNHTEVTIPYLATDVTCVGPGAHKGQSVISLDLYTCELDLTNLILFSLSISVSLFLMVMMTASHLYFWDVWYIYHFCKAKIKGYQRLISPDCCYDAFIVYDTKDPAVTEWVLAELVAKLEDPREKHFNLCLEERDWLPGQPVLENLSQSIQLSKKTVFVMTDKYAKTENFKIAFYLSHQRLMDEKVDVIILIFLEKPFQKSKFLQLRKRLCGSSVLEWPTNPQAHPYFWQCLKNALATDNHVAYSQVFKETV
Experimental: as §1, §2

Row | SMILES | EC50 [1] | EC50 [2]
1 | CCCN(OCC)C(=O)C1=Cc2ccc(S(=O)(=O)c3ccc(C(=O)OC)cc3)cc2N=C(N)C1 | 1060 nM | 
2 | CCCN(OCCNC(=O)OC(C)(C)C)C(=O)C1=Cc2ccc(S(=O)(=O)N(C)C)cc2N=C(N)C1 [Immunoconjugate 8SO2Bz-2] | < 2.3 nM | 395 nM
3 | CCCN(OCC)C(=O)C1=Cc2ccc(S(=O)(=O)NC)cc2N=C(N)C1 [Immunoconjugate 8SO2Bz-3] | 202 nM | 
